Experimental data: US20260327211A1, “MODULATORS OF A POTASSIUM CHANNEL AND OF TRPV1 CHANNEL AND USES THEREOF” (Bsense Bio Therapeutics Ltd., priority 2023, published 2026)
Several values for one entry are separate records, joined by “and”; a condition that tells them apart may be missing. Equal values may be shown once. Read-outs that look alike come from different tables or passages of the source.

Key:
In vitro micronucleus = assay type: cell-based; conditions: hamster, cho-k1 cells
Protocol: (§1) The micronucleus assay was performed according to the regulatory guidelines. In brief, CHO-K1 cells were plated at 10000 cells/well in 3 plates and incubated In CHO-K1 growth medium (containing F12K, 10% FBS and 1% PS) overnight.
(§2) As a control for the S9 treatment, plate No. 1, cells were treated with cyclophosphamide as a positive control, for 3 hours. For plate No. 2, without S9 treatment, cells were treated with mitomycin C as a positive control, compounds for 3 hours, and for plate No. 3, without S9 treatment, cells were treated with bleomycin sulfate as a positive control continuously for 24 hours.
(§3) On the following day, 6 μg/mL of cytochalasin B were added to each well and plates were further incubated overnight. In the day after medium was replaced with a combined 10 μg/mL Hoechst dye solution and 0.5 μM calcein-AM in 100 μL warm DPBS for 30 minutes and the plates were scanned using CQ1 high-content analysis system.

CHO-K1 cells = experiment: In vitro micronucleus; assay type: cell-based
Protocol: as §1, §2, §3

[1] = Log D, 1-octanol/buffer shake flask; assay type: physicochemical; conditions: 1-octanol/phosphate buffer, pH 7.4; read-out: LogD
Method in brief: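 Compound from a 10 mM DMSO stock was partitioned between mutually saturated 1-octanol and 0.1 M phosphate buffer by shaking for 1 h at room temperature, then centrifuged. Each phase was diluted and quantified by LC/MS/MS. Log D came from the ratio of dilution- and internal-standard-corrected peak areas.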

[2] = Human liver microsome metabolic stability; assay type: in vitro ADME; conditions: for half-life at 1 µM: human, liver microsomes, human liver microsomes, read-out: HLM T1/2
Method in brief: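 Compound at 1 μM was incubated at 37 °C with pooled liver microsomes at 0.5 mg/mL and an NADPH regenerating system (about 1.0 mM). Samples were taken from 0 to 60 min, quenched in cold acetonitrile and quantified by LC-MS/MS against an internal standard. CLint was scaled with species liver weights (rat 40 g/kg, human 20 g/kg).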

[3] = Bidirectional permeability in Caco-2 cells; assay type: in vitro ADME, human; conditions: human, Caco-2, pH 7.4, 2.00 μM
Protocol: Cell culture: Caco-2 cells (ATCC) were seeded onto polycarbonate (PC) membranes in 96-well insert plates. The cells were cultured in media for 21-28 days prior to performing the transport assays.
Validation of monolayer integrity: Once the Caco-2 cells formed a confluent monolayer, their integrity was evaluated using a Lucifer yellow rejection assay. The monolayer integrity was further evaluated by measuring, in duplicate wells, the unidirectional (A→B) permeability of nadolol (a low permeability marker) and metoprolol (a high permeability marker), as well as bidirectional permeability of digoxin (a P-glycoprotein substrate marker).
Assay: The compounds were assayed under bidirectional transport conditions (A→B and B→A) at a concentration of 2.00 μM (with DMSO≤1.0%), using a transport buffer composed of HBSS containing 10.0 mM HEPES, pH 7.40±0.05. The incubation was carried out at 37° C., with 5.0% CO2 and relatively saturated humidity for 2 hours.
The dosing solution was spiked and mixed with the transport buffer and a Stop Solution (containing an internal standard (IS)) to create a T0 sample.
Sample analysis: Following the incubation, all of the samples were analyzed using LC-MS/MS. The concentrations of the test compounds were expressed as peak area ratios of the analytes versus the IS.

[4] = Metabolite identification (Met-ID), human hepatocytes; assay type: in vitro ADME; conditions: human hepatocytes
Protocol: Cell culture and incubation: Cryopreserved hepatocyte cells, from human and rat sources, were purchased from commercial sources or in-house production, and were cultured in Williams' Medium E supplemented with glutamine and HEPES, in a humidified 5% CO2 incubator at 37° C., to a cell density of […]. Then, solutions of test compounds at a concentration of 10 μM, or 7-Ethoxycoumarin, as a positive control, at a concentration of 30 μM, in Eagle's Minimum Essential Medium, Catalog No. 30-2003 (ATCC) supplemented with 20% fetal bovine serum, were introduced and the mixture was incubated for 120 minutes, or other specified time points.
The samples were analyzed for metabolites using an LC-MS method developed on […] and PDA systems. Comparative analyses of mass spectra and ion fragmentation between the parent compound and its metabolites were carried out, and metabolic profiling was determined using the mass spectrometric and/or PDA (UV) response. Hypothetical structures of metabolites and their metabolic pathways were proposed.

[5] = tested on: Spared Nerve Injury (SNI) rats; experiment: Spared Nerve Injury (SNI) model, von Frey; assay type: in vivo, rat; conditions: rat, in vivo
Protocol: All animal experiments were carried out according to the Guide for the Care and Use of Laboratory Animals (2011 edition) and approved by the Israel National Institutional Animal Care and Use Committee (IACUC). Young adult male SD rats (Envigo RMS, Israel), were used for in vivo efficacy: Spared Nerve Injury (SNI), Distal Tibial Injury (DTI) and Post-operative Pain (POP), 200-220 grams, Chronic Post-Ischemia Pain (CPIP) 275-325 grams, Monosodium iodoacetate-induced osteoarthritis (MIA-OA) 180-220 grams; for in vivo safety: 200-250 grams at study initiation. […] The health status of the animals used in this study was examined upon their arrival. Only animals in good health were acclimatized to laboratory conditions and were used in the studies. All studies were performed following at least five days of animal acclimation. During acclimation and throughout the entire study duration, animals were housed within a limited-access rodent facility and kept in groups with a maximum of 2-3 rats per polypropylene cage. The cages were fitted with solid bottoms and filled with sterile wood shavings as bedding material. Animals were provided ad libitum with a commercial, sterile rodent diet and had free access to drinking water that was supplied to each cage via polyethylene bottles with stainless steel sipper tubes. A feed lot analysis of the diet batch used in the study was included in the archives with the study data. Water was monitored periodically. Plastic cylinders for playing and hiding and wooden balls or sticks were added to the cages for environmental enrichment.
SNI: The SNI procedure consisted of ligating and dissecting the tibial and common peroneal nerves, thus sparing the sural nerve. Prior to surgery, a dose of 0.03 mg/kg buprenorphine (Temgesic®) was administered to animals as a prophylaxis to alleviate the operative and postoperative pain unrelated to neuropathy. Next, animals were anesthetized with a combination of medetomidine/ketamine sodium IP. While under anesthesia a medio caudal incision of 4-5 mm parallel to the left femur was cut on shaved and disinfected skin. The sciatic nerve was exposed from underneath the muscle layer and isolated gently from the surrounding connective tissue, using curved and blunt forceps. The tibial and common peroneal nerves were first tightly ligated with double knot of 6-0 silk suture, proximally and immediately distal to the sciatic bifurcation. Thereafter, the nerves which run as a pair as physically attached to each other were cut at sites close to the ligatures, thereby removing a length of approximately 0.5 mm of the nerves, necessary to avoid the formation of any re-connection to the nerves. This procedure led to complete denervation of areas of tibial and peroneal innervation in the plantar paw, while neuropathy was developed upon the sural territories. Special care was taken not to manipulate the sural nerve, which thus was left intact. The muscle layers and skin were sutured, and animals were allowed to recover. 0.03 mg/kg buprenorphine SC was administered on postoperative days 1-2, every 12 hours, starting from the evening of Day 0. Rehydration with 4 ml of sterile saline IP was provided directly after the surgery, continuing twice a day for 7 days. The sural nerve innervates the lateral longitudinal third of the plantar paw and therefore, mechanical sensitivity was assessed in this area.
The selection of animals was performed on day 13 post-operation before animals were placed in their experimental groups. Animals with a pain threshold of <4 grams for an operated leg following Von Frey testing were included in the study. To form homogenous treatment groups, all the selected animals were grouped using a random sampling method on study day 13, to form groups with similar pain threshold mean. For blinding purposes, the researcher who dosed the animals with test items was different than the researcher who conducted the VF tests. […]

MIA-OA rats = experiment: Dynamic weight bearing in MIA-OA rats; assay type: in vivo, rat; conditions: 100 mg/kg (naproxen 30 mg/kg), 6 hours post-dose
Protocol: Monosodium iodoacetate-induced osteoarthritis (MIA-OA): The animals were anaesthetized using an Isoflurane+O2 mixture. Then 50 μl of MIA at a concentration of 60 mg/mL was injected into the right knee joint using a 30 G needle. On study days 13 and 14 following MIA injection, the animals' dynamic weight bearing and response to von Frey filaments were measured.
Dynamic Weight Bearing (DWB): DWB study was performed using the DWB2 apparatus (Bioseb, Paris, France). The rats were placed in a transparent cage containing a matrix comprising around 2000 high-precision force sensors embedded in its floor where they were allowed to move freely. The force sensors measured the weight distribution on each of the four paws of the animal in grams. The animal was filmed from above using a high-definition camera, and the video feed was analyzed in real-time during the test using tracking software, allowing a precise analysis of the animal's posture and hind paws identification. Out of 5 minutes of animal behavior recording, a segment of 2 minutes was analyzed. Once the analysis was completed, the software provided the weight distribution of each hind paw as the main readout and the ratio between the injured and intact hind paws was then calculated.

hTRPV1 = target: T1, hTRPV1 (Homo sapiens, UniProt Q8NER1); experiment: hTRPV1 dual activity electrophysiology, CHO cells co-expressing hKv7.2/3 and hTRPV1; assay type: cell-based; conditions: Dual hTRPV1 / Dual Expressing CHO, CAP IC50, Kv7.2/3 co-expressed and activated, capsaicin
T1 construct: CDS of NM_080704.4, inserted into the multiple cloning site of pcDNA3.1(+); host or cells: CHO/hKv7.2/3
T1 sequence (Q8NER1 whole entry): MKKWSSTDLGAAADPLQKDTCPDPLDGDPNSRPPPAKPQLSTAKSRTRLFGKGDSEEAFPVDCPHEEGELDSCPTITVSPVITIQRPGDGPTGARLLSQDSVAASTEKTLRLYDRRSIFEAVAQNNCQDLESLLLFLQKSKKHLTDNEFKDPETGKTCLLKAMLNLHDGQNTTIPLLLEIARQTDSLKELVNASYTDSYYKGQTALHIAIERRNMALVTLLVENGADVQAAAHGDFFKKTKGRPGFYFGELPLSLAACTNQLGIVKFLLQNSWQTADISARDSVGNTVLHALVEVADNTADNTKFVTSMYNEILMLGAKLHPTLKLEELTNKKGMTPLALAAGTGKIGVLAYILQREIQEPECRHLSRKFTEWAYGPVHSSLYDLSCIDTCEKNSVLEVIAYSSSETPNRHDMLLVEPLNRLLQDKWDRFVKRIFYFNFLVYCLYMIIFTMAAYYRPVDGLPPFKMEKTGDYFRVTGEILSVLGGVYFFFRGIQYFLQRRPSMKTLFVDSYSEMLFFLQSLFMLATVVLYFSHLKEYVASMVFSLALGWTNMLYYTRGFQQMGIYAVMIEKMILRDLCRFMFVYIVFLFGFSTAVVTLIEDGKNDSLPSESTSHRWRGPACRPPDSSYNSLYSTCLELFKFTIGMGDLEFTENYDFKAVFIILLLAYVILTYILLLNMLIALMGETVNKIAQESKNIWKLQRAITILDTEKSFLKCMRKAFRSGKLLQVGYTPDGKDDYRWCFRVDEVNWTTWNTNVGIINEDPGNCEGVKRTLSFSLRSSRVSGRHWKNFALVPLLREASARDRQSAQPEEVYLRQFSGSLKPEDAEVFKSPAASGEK
Protocol: Cell culture and DNA transfection: CHO/hKv7.2/3 cells were transfected with hTRPV1 DNA constructs (CDS of NM_080704.4, inserted into the multiple cloning site of pcDNA3.1(+) between the Hind III and BamH I restriction site, Genscript). For CHO transfection, 1×10^6 cells were suspended in a reaction mix (Amaxa™ 4D-Nucleofector™-LONZA) containing 5 μg of hTRPV1 DNA and 0.5 μg of GFP DNA (for cells selection) in a cuvette.
The cells were transformed (Amaxa, DT-133 program for CHO transfection with p-3 Kit) and recovered for 10 minutes at RT in the hood. Then cells were re-suspended in a 10 mL antibiotic (Ab)-free medium suspension and were plated on Gelatin or PLL-coated cover glass in different cell densities. On the next morning, the medium was changed to full medium containing the CHO/hKv7.2/3 cell line selection antibiotics.
Extracellular (Bath) solution: The solution was composed of (in mM): NaCl, 140; KCl, 4; CaCl2, 1.8; MgCl2, 1.2; Glucose, 11; HEPES, 5.5. pH was adjusted to 7.3 with NaOH. Osmolarity was adjusted to 310 mOsm with Sucrose.
Intracellular (Pipette) solution: Pipettes were pulled from borosilicate glass (Warner Instrument Corp, USA) with a resistance of 3-7 MΩ and were filled with internal solution composed of (in mM): KCl, 130; MgCl2, 1; K ATP, 5; EGTA, 5; HEPES, 10. pH was adjusted to 7.3 with KOH. Osmolarity was adjusted to 290 mOsm with Sucrose.
A programmable valve-linked pressurized perfusion system was used for local application of compounds nearby the cell recorded in a consistent flow rate of 2-3 mL/minute. Series resistance was corrected and data were sampled at 5 kHz and low pass filtered at 2.4 kHz using MultiClamp 700B amplifier with pCLAMP11 software (Molecular Devices, USA).
At least 48 hours following cell transfection and plating, cells were recorded to assess the TRPV1 dual activity. Membrane potential was held at −90 mV. To measure the inhibitory effects of the tested compounds on hTRPV1 dual activity the following protocol was performed:
Cells were perfused with vehicle-only containing bath solution. After 30 seconds, a single −40 mV 1.5 second step was applied for Kv7.2/3 activation and 30 seconds later capsaicin (1 μM) was applied for 6 seconds to activate the TRPV1.
Cells perfusion was changed to a compound-containing bath solution, and after 2 minutes and 30 seconds of compound application, a single −40 mV 1.5 second step was applied for Kv7.2/3 activation and 30 seconds later capsaicin (1 μM) was applied for 6 seconds to activate the TRPV1.
Cells perfusion was thereafter changed back to vehicle only-containing bath solution. After 30 seconds, a single −40 mV 1.5 step was applied for Kv7.2/3 activation and 30 seconds later capsaicin (1 μM) was applied for 6 seconds to activate the TRPV1 followed by a capsaicin wash out.
The drug current response, when capsaicin was injected following 3 minutes of pre-incubation with the test compound, was divided by the averaged control currents, induced without compound, before compound incubation and following its washout, to evaluate the drug/control response.

Row | Structure (SMILES) | logD [1] | HLM and/or Rat PK clearance rates compared to compound 661 [2] | half-life at 1 µM [2] [min] | efflux ratio at 2 h, 2 µM [3] | Human Hepatocytes MetID (glutathione conjugation) [4] | further results
1 | CO[C@@]12[C@H](COC(N)=O)C3=C(C(=O)C(C)=C(N)C3=O)N1C[C@@H]1N[C@@H]12 [Mitomycin C, reference compound] | – | – | – | – | – | CC50 at 3 h (In vitro micronucleus; Plate 2 without S9, 3 hours, read-out: Cytotoxicity (%) Absolute EC50): > 16 µM; Micronucleus response Absolute MEC (CHO-K1 cells; Plate 2 without S9, 3 hours): >16 µM
2 | O=C(Cc1cc(-n2cc(Cl)c3cc(Cl)cc(Cl)c32)cnn1)N[C@@H]1COC[C@H]1O [Compound 830] | 3.2 | improved HLM and/or Rat PK clearance rates compared to compound 661 | 58.1 | 84 | did not indicate the presence of glutathione conjugation | –
3 | CC(C)C[C@H](CN)CC(=O)O [Pregabalin, reference compound] | – | – | – | – | – | Reversal of PWT [5]: 61% and 50%
4 | COc1ccc2cc([C@H](C)C(=O)O)ccc2c1 [naproxen, reference compound] | – | – | – | – | – | Reversal of weight bearing changes (MIA-OA rats): comparable reversal of weight bearing changes
5 | O=C(Cc1cc(-n2cc(Cl)c3cc(Cl)cc(Cl)c32)ncn1)N[C@@H]1COC[C@H]1O [Compound 840] | 3.63 | improved HLM and/or Rat PK clearance rates compared to compound 661 | 52 | 5.4 | did not indicate the presence of glutathione conjugation and None | IC50 (hTRPV1): 0.479 µM
6 | O=P1(N(CCCl)CCCl)NCCCO1 (centres unmarked) [Cyclophosphamide, reference compound] | – | – | – | – | – | CC50 at 3 h (In vitro micronucleus): 41.4 µM; Micronucleus response Absolute MEC (CHO-K1 cells; hamster): >400 µM
